# Measurements: publication PMC11088877, “AMP-activated protein kinase can be allosterically activated by ADP but AMP remains the key activating ligand” (Biochemical Journal, 2024)
# Values joined by “and” are separate entries in the source; they are usually repeats but may differ in a detail not shown here. Equal entries are not always repeated.
# System: rat liver AMPK
# Assay: Allosteric activation and inhibition of native rat liver AMPK by AMP and ADP (SAMS peptide kinase assay)
# Format: biochemical
# Design: IC50/EC50: unit not given beside the values
# Settings: for maximal extent of activation: Discussion (for ADP: rat liver AMPK and human α2β2γ1 complex); for effect of CD73 in the assay on allosteric activation by the nucleotide: AMP 0.3 mM or ADP 1 mM, CD73 550 ng
# Description: To study allosteric effects, we initially used a preparation of native rat liver AMPK [4]. While not homogeneous, this preparation has a high specific kinase activity (1.3 µmol/min/mg) and is a combination of the α1, α2, β1, β2 and γ1 subunit isoforms (Supplementary Figure S1). Being from a mammalian source both β subunit isoforms would be N-myristoylated and we have shown previously that the preparation is not contaminated with any protein phosphatases that dephosphorylate Thr172 [4]. We assessed the potential allosteric effects of both AMP and ADP at three different concentrations of ATP. We maintained Mg^2+ ions at a constant 4.8 mM excess above total ATP, a design that ensures that the concentration of the Mg.ATP^2− complex varies as a fixed proportion of total ATP [19].
# As previously reported, with AMP we obtained bell-shaped curves due to activation at low concentrations combined with inhibition at higher concentrations (Figure 1). We have previously shown that the allosteric activation is due to binding of AMP to one or more of the regulatory sites on the γ subunit, whereas the inhibition is due to binding of AMP at the catalytic site within the α subunit kinase domain [4]. Consistent with the fact that ATP competes with AMP at both sites, as the ATP concentration was progressively raised from 0.2 to 1.0 and 5 mM, the bell-shaped curves shifted to the right, towards higher concentrations of AMP. The data were fitted to an equation for activation at one site and inactivation at a second site, as detailed in the legend to Figure 1. The best-fit parameters are shown in Supplementary Table S1, and these values were used to draw the curves in Figure 1A–C; the best-fit estimates for EC50 and IC50 are indicated by dashed vertical lines, faint lines for AMP and heavier lines for ADP.
# Figure 1. Allosteric activation of rat liver AMPK by AMP and ADP at three different concentrations of ATP. (A) 200 µM ATP; (B) 1 mM ATP; (C) 5 mM ATP. [Mg^2+] was maintained at a constant excess of 4.8 mM above [ATP] as recommended previously. Results (mean ± SD, n = 2) were fitted to the equation: Y = 1 + (((Activation-1) × X)/(EC50 + X))-(((activation) × X)/(IC50 + X)), where Y is the activity, X is the concentration of AMP or ADP, Activation is the extrapolated maximal activation by AMP or ADP, EC50 is the concentration of AMP or ADP causing half-maximal activation, and IC50 is the concentration of AMP or ADP causing half-maximal inhibition. The dashed vertical lines show the estimated EC50 and IC50 values, faint lines for AMP and bold lines for ADP. A reliable estimate of EC50 could not be computed for ADP at 0.2 mM ATP (graph (A)). Best-fit values of all parameters used to generate the curves are listed in Supplementary Table S1.
# Figure 2. Allosteric activation of rat liver AMPK by AMP and ADP in the presence and absence of the nucleotidase CD73. Allosteric activation was assessed as in Figure 1 with a single fixed concentration of AMP or ADP (0.3 or 1 mM respectively) in the presence or absence of CD73 (550 ng). Statistical significance of differences in results (mean ± SEM, n = 3) were assessed by two-way ANOVA. Effect of nucleotide: ****P < 0.0001; effect of CD73: ^††††P < 0.0001, ns, not significant.
# AMPK assays measured the transfer of radioactivity from [γ-^33P]ATP to a peptide substrate, which was separated from unreacted ATP by binding to P81 paper. This assay was described previously except that we used [γ-^33P] rather than [γ-^32P]ATP. In some assays (specified in Figure legends) the concentration of ATP was increased from 0.2 to 1 or 5 mM ATP, with MgCl2 concentrations maintained at a constant 4.8 mM excess above the concentration of ATP [19]. Where allosteric activation by AMP or ADP was being studied, we used the SAMS peptide as substrate. For all other assays the AMARA peptide was used.
SMILES,maximal extent of activation (5 mM ATP),"Activation (extrapolated maximal activation) (rat liver AMPK, 0.2 mM ATP)","IC50 (rat liver AMPK, 0.2 mM ATP) [µM]","observed maximal extent of activation above basal (rat liver AMPK, 1 mM ATP)","Activation (extrapolated maximal activation) (rat liver AMPK, 1.0 mM ATP)","EC50 (rat liver AMPK, 1.0 mM ATP) [µM]","IC50 (rat liver AMPK, 1.0 mM ATP) [µM]","IC50/EC50 (rat liver AMPK, 1.0 mM ATP)","observed maximal extent of activation above basal (rat liver AMPK, 5 mM ATP)","Activation (extrapolated maximal activation) (rat liver AMPK, 5.0 mM ATP)","EC50 (rat liver AMPK, 5.0 mM ATP) [µM]","IC50 (rat liver AMPK, 5.0 mM ATP) [µM]","IC50/EC50 (rat liver AMPK, 5.0 mM ATP)",effect of CD73 in the assay on allosteric activation by the nucleotide (rat liver AMPK),"EC50 (rat liver AMPK, 0.2 mM ATP) [µM]","IC50/EC50 (rat liver AMPK, 0.2 mM ATP)","degree of activation over basal (rat liver AMPK, 0.2 to 5 mM ATP)"
Nc1ncnc2c1ncn2[C@@H]1O[C@H](COP(=O)(O)OP(=O)(O)O)[C@@H](O)[C@H]1O [ADP],≈ 1.5 fold,no activation was detectable and none,400,≈ 25%,2.4 fold and 2.4 (1.8 -??) fold,122,690,6 and 5.7,≈ 50%,2.0 fold and 2.0 (1.7 -2.8) fold,220,4000,18,did not significantly affect,–,–,–
Nc1ncnc2c1ncn2[C@@H]1O[C@H](COP(=O)(O)O)[C@@H](O)[C@H]1O [AMP],3 fold,2.9 (2.8 -3.0) fold,1700,–,2.8 (2.7-2.9) fold,14,6900,490,–,3.7 (3.5-3.8) fold,36,17000,~500 and 470,completely abolished,6.4,270,3- to 4 fold
